Where a name gives a salt, the structure may show the parent alone. Read-outs that look alike come from different tables or passages of the source.
Key:
Reck gene promoter [1] = experiment: SEAP assay in YM3 cells (Reck gene promoter-reporter system); type: cell-based, mouse
Method: A 4.1-kb upstream region of a mouse Reck gene (Gene ID: 53614, Chromosome 4—NC—000070.5 43884251-43888453) was inserted into a pSEAP2-Basic vector (Clontech) to give a pSEAP-RP4.1 plasmid. […] Biochem Biophys Res Commun 1999; 264: 668-675.). […] TF323-C3 cells can be distributed from one of the inventors Makoto Noda.
YM3 cells were seeded onto 96-well plates at 1×10^4 cells in 100 μl per well and incubation was performed for 5 hours to allow the cells to settle. A compound solution (500 μM, 1 μl) was added to the medium. The employed test compounds were those in the chemical library Prestwick Chemical Library (Prestwick Chemical, Illkirch, France), which is composed of 880 structurally diverse known bioactive compounds, dissolved in nano-pure grade dimethyl sulfoxide (DMSO; Wako). […] A vehicle (DMSO, 1 μl) alone as a negative control and hypothemycin (HPM, 1 mg/ml) as a positive control were added to two wells per plate. Each sample was tested on two different plates (duplicate samples).
After incubation for 48 hours, a portion (10 μl) of the culture supernatant was sampled, incubated at 65° C. (heat treatment) for 30 minutes, and then subjected to the SEAP assay using Great EscAPe™ SEAP Chemiluminescence Detection Kit (Takara Bio). The remaining medium and the cells were subjected to the cell-counting assay using SF reagent. That is, SF reagent (Nacalai) (10 μl per well) was added to the medium, the plates were incubated for 3 hours in a CO2 incubator, and the absorbance at 450 nm (A450) was measured to obtain relative cell numbers. For the SEAP activity data, “SEAP measured value/A450 value” was defined as “SEAP activity per cell”, and the value obtained by dividing “SEAP activity per cell” of each compound by “SEAP activity per cell” of the negative control was defined as “relative SEAP activity”. The mean “relative SEAP activity” of the duplicate samples and the standard error thereof were determined. For the cell number data, the value obtained by dividing the SF measured value of each compound by the SF measured value of the negative control was defined as “relative cell number”, and the mean value of the duplicate samples and the standard error thereof were determined. Samples with a large standard error were tested again. In the experiment, duplicate samples were prepared each in a regular liquid medium and in a liquid medium containing Dox (2 μg/ml), and four mean values (the relative cell number and the relative SEAP activity in the Ras-ON state and the relative cell number and the relative SEAP activity in the Ras-OFF state) were obtained (see FIG. 3).

RM72 cells = type: in vivo; settings: mouse, in vivo
Method: RM72 cells (3×10^6 cells) suspended in 0.1 ml of PBS were subcutaneously injected into the right posterior flank of Balb/c nude mice (6 weeks old, male, Charles River). […]. After 14-day treatment, the mice were anesthetized and their bioluminescence was recorded by the method described below. After the whole-body recording of the bioluminescence, the lung was resected, washed with PBS (−), and subjected to bioluminescence recording. The tumor size (length×width×height) was measured once a week. Statistical significance was assessed by Student's t-test.
Mice under anesthesia were intraperitoneally injected with 75 mg/kg of d-luciferin dissolved in PBS (−). Bioluminescence images were acquired with IVIS ImagingSystem (Xenogen) at 5 minutes after the injection (Wang S, El-Deiry W S. Requirement of p53 targets in chemosensitization of colonic carcinoma to death ligand therapy. Proc Natl Acad Sci USA 2003; 100: 15095-15100; Minn A J, Kang Y, Serganova I, Gupta G P, Giri D D, Doubrovin M, Ponomarev V, Gerald W L, Blasberg R, Massague J. Distinct organ-specific metastatic potential of individual breast cancer cells and primary tumors. J Clin Invest 2005; 115: 44-55). The photons emitted from the whole bodies or the isolated organs were collected for a period of 60 seconds and integrated. The images were analyzed using Living Image software (Xenogen).
The anti-tumorigenic and anti-metastatic activities of Pyt, Hr, Gra and Lyc were investigated with the same protocol as in Example 9. The experiment was conducted in two batches: Experiment 1 for three groups of a Pyt group, a Hr group and a vehicle group and Experiment 2 for three groups of a Gra group, a Lyc group and a vehicle group. The doses of the test compounds were set at two different quantities considered to be appropriate based on literature (see Tables 3 and 4).

Reck gene promoter [2] = experiment: SEAP assay in YM3 cells (Reck gene promoter-reporter system); type: cell-based, mouse; settings: determined by dose-response assays (0.0617, 0.185, 0.556, 1.67, 5.00 μM) using YM3 cells
[3] = in the presence of Dox (HRAS12V-off)
[4] = relative SEAP activity at optimal conc., YM3 cells, regular medium (Ras-ON)

In the case of `CCCSc1ccc2nc(NC(=O)OC)[nH]c2c1` [Albendazole], the “Activity in Dox” value (Reck gene promoter [1]) is reported as “± (key: +: more than 1.9-fold; ±: between 1.9 and 1.5-fold; −: less than 1.5-fold)” and the “Induction (fold)” value (Reck gene promoter [1]) is reported as 2.89 fold.

With `CC[C@@]1(O)C(=O)OCc2c1cc1n(c2=O)Cc2cc3ccccc3nc2-1` [Camptothecine (S, +)] the Optimal conc. (Reck gene promoter [1]) was 5.00 µM, the “Activity in Dox” value (Reck gene promoter [1]; [3]) was “+ (more than 1.9-fold)” and the “Induction (fold)” value (Reck gene promoter [1]; [4]) was 7.71 fold.

With `CC[C@H]1CN2CCc3cc(OC)c(OC)cc3[C@@H]2C[C@@H]1C[C@H]1NCCc2cc(O)c(OC)cc21.Cl.Cl.O.O.O.O.O.O.O` [Cephaeline dihydrochloride heptahydrate] the Optimal conc. (Reck gene promoter [1]) was 5.00 µM, the “Activity in Dox” value (Reck gene promoter [1]; [3]) was “+ (more than 1.9-fold)” and the “Induction (fold)” value (Reck gene promoter [1]; [4]) was 5.61 fold.

In the case of `C[C@@H]1C[C@@H]([C@H](O)CC2CC(=O)NC(=O)C2)C(=O)[C@@H](C)C1` [Cycloheximide], the “Activity in Dox” value (Reck gene promoter [1]; [3]) is reported as “± (between 1.9 and 1.5-fold)” and the “Induction (fold)” value (Reck gene promoter [1]; [4]) is reported as 2.29 fold.

With `COc1cccc2c1C(=O)c1c(O)c3c(c(O)c1C2=O)C[C@@](O)(C(C)=O)C[C@@H]3O[C@H]1C[C@H](N)[C@H](O)[C@H](C)O1` [Daunorubicin hydrochloride] the “Activity in Dox” value (Reck gene promoter [1]; [3]) was “+ (more than 1.9-fold)” and the “Induction (fold)” value (Reck gene promoter [1]; [4]) was 6.22 fold.

For `CN(C)[C@@H]1C(O)=C(C(N)=O)C(=O)[C@@]2(O)C(O)=C3C(=O)c4c(O)ccc(Cl)c4[C@@H](O)[C@H]3C[C@@H]12` [Demeclocycline hydrochloride], the “Activity in Dox” value (Reck gene promoter [1]; [3]) was “− (less than 1.5-fold)” and the “Induction (fold)” value (Reck gene promoter [1]; [4]) was 2.57 fold.

`CCOC(=O)NC1=C(N2CC2)C(=O)C(NC(=O)OCC)=C(N2CC2)C1=O` [Diaziquone] was tested, and the “Activity in Dox” value (Reck gene promoter [1]; [3]) was “± (between 1.9 and 1.5-fold)” and the “Induction (fold)” value (Reck gene promoter [1]; [4]) was 3.54 fold.

For `CCN(CC)C(=S)SSC(=S)N(CC)CC` [Disulfiram], the “Activity in Dox” value (Reck gene promoter [1]; [3]) was “+ (more than 1.9-fold)” and the “Induction (fold)” value (Reck gene promoter [1]; [4]) was 18.0 fold.

`C[C@H]1c2cccc(O)c2C(=O)C2=C(O)[C@]3(O)C(=O)C(C(N)=O)=C(O)[C@@H](N(C)C)[C@@H]3[C@@H](O)[C@@H]21` [Doxycycline hydrochloride] was tested, and the “Activity in Dox” value (Reck gene promoter [1]; [3]) was “− (less than 1.5-fold)” and the “Induction (fold)” value (Reck gene promoter [1]; [4]) was 1.96 fold.

For `CC[C@H]1CN2CCc3cc(OC)c(OC)cc3[C@@H]2C[C@@H]1C[C@H]1NCCc2cc(OC)c(OC)cc21` [Emetine dihydrochloride], the “Activity in Dox” value (Reck gene promoter [1]; [3]) was “− (less than 1.5-fold)” and the “Induction (fold)” value (Reck gene promoter [1]; [4]) was 3.79 fold.

`COc1cc([C@@H]2c3cc4c(cc3[C@@H](O[C@@H]3O[C@@H]5CO[C@@H](C)O[C@H]5[C@H](O)[C@H]3O)[C@H]3COC(=O)[C@H]23)OCO4)cc(OC)c1O` [Etoposide] was tested, and the “Activity in Dox” value (Reck gene promoter [1]; [3]) was “+ (more than 1.9-fold)” and the “Induction (fold)” value (Reck gene promoter [1]; [4]) was 1.99 fold.

In the case of `COc1cc(O)c2c(c1)[C@H]1O[C@@H]1C[C@H](O)[C@H](O)C(=O)/C=C\C[C@H](C)OC2=O` [HPM, hypothemycin], the “SEAP up-regulation in YM3 cells” value (Reck gene promoter [1]; 1 μg/ml) is reported as “up-regulated” and the “up-regulation of SEAP activity” value (Reck gene promoter [1]; positive control, typical) is reported as “about twofold”.

With `Clc1cc(Cl)c(OCC#CI)cc1Cl` [Haloprogin] the “Activity in Dox” value (Reck gene promoter [1]; [3]) was “+ (more than 1.9-fold)” and the “Induction (fold)” value (Reck gene promoter [1]; [4]) was 3.48 fold.

`CCN(CC)CCNc1ccc(CO)c2sc3ccccc3c(=O)c12` [Hycanthone] was tested, and the “Activity in Dox” value (Reck gene promoter [1]; [3]) was “+ (more than 1.9-fold)” and the “Induction (fold)” value (Reck gene promoter [1]; [4]) was 2.02 fold.

For `CC1=CC(=O)c2ccccc2C1=O` [Menadione], the “Activity in Dox” value (Reck gene promoter [1]; [3]) was “+ (more than 1.9-fold)” and the “Induction (fold)” value (Reck gene promoter [1]; [4]) was 3.21 fold.

In the case of `CN(Cc1cnc2nc(N)nc(N)c2n1)c1ccc(C(=O)N[C@@H](CCC(=O)O)C(=O)O)cc1` [Methotrexate], the “Activity in Dox” value (Reck gene promoter [1]; [3]) is reported as “± (between 1.9 and 1.5-fold)” and the “Induction (fold)” value (Reck gene promoter [1]; [4]) is reported as 3.42 fold.

In the case of `CN(C)c1ccc(O)c2c1C[C@H]1C[C@H]3[C@H](N(C)C)C(O)=C(C(N)=O)C(=O)[C@@]3(O)C(O)=C1C2=O` [Minocycline hydrochloride], the “Activity in Dox” value (Reck gene promoter [1]; [3]) is reported as “− (less than 1.5-fold)” and the “Induction (fold)” value (Reck gene promoter [1]; [4]) is reported as 2.54 fold.

In the case of `O=C1c2c(O)ccc(O)c2C(=O)c2c(NCCNCCO)ccc(NCCNCCO)c21` [Mitoxantrone dihydrochloride], the “Activity in Dox” value (Reck gene promoter [1]; [3]) is reported as “+ (more than 1.9-fold)” and the “Induction (fold)” value (Reck gene promoter [1]; [4]) is reported as 3.60 fold.

With `CC(=O)O[C@H]1C(=O)[C@@]2(C)[C@H]([C@H](OC(=O)c3ccccc3)[C@]3(O)C[C@H](OC(=O)[C@H](O)[C@@H](NC(=O)c4ccccc4)c4ccccc4)C(C)=C1C3(C)C)[C@]1(OC(C)=O)CO[C@@H]1C[C@@H]2O` [Paclitaxel] the “Activity in Dox” value (Reck gene promoter [1]; [3]) was “± (between 1.9 and 1.5-fold)” and the “Induction (fold)” value (Reck gene promoter [1]; [4]) was 3.32 fold.

With `C1CCC(C(CC2CCCCN2)C2CCCCC2)CC1` (stereo not drawn) [Perhexiline maleate] the “Activity in Dox” value (Reck gene promoter [1]; [3]) was “+ (more than 1.9-fold)” and the “Induction (fold)” value (Reck gene promoter [1]; [4]) was 2.28 fold.

In the case of `COc1cc(/C=C/C(=O)N2CCC=CC2=O)cc(OC)c1OC` [Piperlongumine], the Optimal conc. (Reck gene promoter [1]) is reported as 5.00 µM, the “Activity in Dox” value (Reck gene promoter [1]; [3]) is reported as “− (less than 1.5-fold)” and the “Induction (fold)” value (Reck gene promoter [1]; [4]) is reported as 2.06 fold.

With `COc1cc([C@@H]2c3cc4c(cc3[C@H](O)[C@H]3COC(=O)[C@H]23)OCO4)cc(OC)c1OC` [Podophyllotoxin] the “Activity in Dox” value (Reck gene promoter [1]; [3]) was “± (between 1.9 and 1.5-fold)” and the “Induction (fold)” value (Reck gene promoter [1]; [4]) was 2.48 fold.

`CCc1nc(N)nc(N)c1-c1ccc(Cl)cc1` [Pyrimethamine] was tested, and the “Activity in Dox” value (Reck gene promoter [1]; [3]) was “± (between 1.9 and 1.5-fold)” and the “Induction (fold)” value (Reck gene promoter [1]; [4]) was 2.33 fold.

In the case of `[O-][n+]1ccccc1S` [Pyrithione sodium salt], the “Lung metastasis Mean” value (RM72 cells; 15 mg/kg/day) is reported as 11.6, the “Tumor Mean” value (RM72 cells; 15 mg/kg/day) is reported as 52.2 and the “Lung metastasis Mean” value (RM72 cells; 50 mg/kg/day) is reported as 84.2. The “Tumor Mean” value (RM72 cells; 50 mg/kg/day) was 74.4, the “Activity in Dox” value (Reck gene promoter [1]) was “+ (key: +: more than 1.9-fold; ±: between 1.9 and 1.5-fold; −: less than 1.5-fold)” and the “Induction (fold)” value (Reck gene promoter [1]) was 17.5 fold.

In the case of `O=C(c1ccc(OCCN2CCCCC2)cc1)c1c(-c2ccc(O)cc2)sc2cc(O)ccc12` [Raloxifene hydrochloride], the “Activity in Dox” value (Reck gene promoter [1]; [3]) is reported as “− (less than 1.5-fold)” and the “Induction (fold)” value (Reck gene promoter [1]; [4]) is reported as 2.17 fold.

`Nc1nc(N)c2nc(-c3ccccc3)c(N)nc2n1` [Triamterene] was tested, and the “Activity in Dox” value (Reck gene promoter [1]; [3]) was “− (less than 1.5-fold)” and the “Induction (fold)” value (Reck gene promoter [1]; [4]) was 2.25 fold.

In the case of `CN(C)CCCN1c2ccccc2Sc2ccc(C(F)(F)F)cc21` [Triflupromazine hydrochloride], the “Activity in Dox” value (Reck gene promoter [1]) is reported as “− (key: +: more than 1.9-fold; ±: between 1.9 and 1.5-fold; −: less than 1.5-fold)”.

In the case of Meclocycline sulfosalicylate, the Optimal conc. (Reck gene promoter [2]) is reported as 0.0617 µM, the “Activity in Dox” value (Reck gene promoter [1]; [3]) is reported as “− (less than 1.5-fold)” and the “Induction (fold)” value (Reck gene promoter [1]; [4]) is reported as 2.59 fold.

With Thimerosal the “Activity in Dox” value (Reck gene promoter [1]) was “+ (key: +: more than 1.9-fold; ±: between 1.9 and 1.5-fold; −: less than 1.5-fold)”, the “Induction (fold)” value (Reck gene promoter [1]) was 9.33 fold and the Optimal conc. (Reck gene promoter [1]) was 5.00 µM.

Trimeprazine tartrate was tested, and the Optimal conc. (Reck gene promoter [2]) was 5.00 µM, the “Activity in Dox” value (Reck gene promoter [1]; [3]) was “− (less than 1.5-fold)” and the “Induction (fold)” value (Reck gene promoter [1]; [4]) was 2.30 fold.

Reference: patent US9018438B2, “Screening method for anticancer drugs” (Kyoto University, priority 2010, dated 2015)
